# Data from the supplement of paper PMC10307832.
# Assays:
# Test in all cases: relative viability (nuclei count vs DMSO), 5 days (fraction); higher = more cells survive
# Seliciclib + Navitoclax = compound: CC[C@H](CO)Nc1nc(NCc2ccccc2)c2ncn(C(C)C)c2n1 [Seliciclib] + CC1(C)CCC(c2ccc(Cl)cc2)=C(CN2CCN(c3ccc(C(=O)NS(=O)(=O)c4ccc(N[C@H](CCN5CCOCC5)CSc5ccccc5)c(S(=O)(=O)C(F)(F)F)c4)cc3)CC2)C1 [Navitoclax] (partner 0.5 µM)
# Outline: (§1)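 Cells from lung cancer lines were seeded into 1536-well plates and, one day later, dosed by pin tool. Treatments were either a single drug or a fixed dose of an anchor drug with five library-drug doses (not always all listed) in √10 steps. After 5 days, nuclei were stained in a one-step fixation (final 0.05% Triton X-100, 1% formaldehyde, 1 ug/ml Hoechst) and counted on 4× images, and relative viability is the treated-to-vehicle nuclei ratio, as the median of duplicate plates.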
# Seliciclib + Luminespib = compound: CC[C@H](CO)Nc1nc(NCc2ccccc2)c2ncn(C(C)C)c2n1 [Seliciclib] + CCNC(=O)c1noc(-c2cc(C(C)C)c(O)cc2O)c1-c1ccc(CN2CCOCC2)cc1 [Luminespib] (partner 0.01 µM)
# Outline: as §1
# Seliciclib + Linsitinib = compound: CC[C@H](CO)Nc1nc(NCc2ccccc2)c2ncn(C(C)C)c2n1 [Seliciclib] + C[C@]1(O)C[C@@H](c2nc(-c3ccc4ccc(-c5ccccc5)nc4c3)c3c(N)nccn32)C1 [Linsitinib] (partner 1 µM)
# Outline: as §1
# Seliciclib + Foretinib = compound: CC[C@H](CO)Nc1nc(NCc2ccccc2)c2ncn(C(C)C)c2n1 [Seliciclib] + COc1cc2c(Oc3ccc(NC(=O)C4(C(=O)Nc5ccc(F)cc5)CC4)cc3F)ccnc2cc1OCCCN1CCOCC1 [Foretinib] (partner 0.25 µM)
# Outline: as §1
Cell Line,relative viability (Seliciclib + Navitoclax; first compound 0.08 µM),relative viability (Seliciclib + Navitoclax; first compound 0.253 µM),relative viability (Seliciclib + Navitoclax; first compound 0.8 µM),relative viability (Seliciclib + Navitoclax; first compound 2.53 µM),relative viability (Seliciclib + Navitoclax; first compound 8 µM),relative viability (Seliciclib + Luminespib; first compound 0.08 µM),relative viability (Seliciclib + Luminespib; first compound 0.253 µM),relative viability (Seliciclib + Luminespib; first compound 0.8 µM),relative viability (Seliciclib + Luminespib; first compound 2.53 µM),relative viability (Seliciclib + Luminespib; first compound 8 µM),relative viability (Seliciclib + Linsitinib; first compound 0.08 µM),relative viability (Seliciclib + Linsitinib; first compound 0.253 µM),relative viability (Seliciclib + Linsitinib; first compound 0.8 µM),relative viability (Seliciclib + Linsitinib; first compound 2.53 µM),relative viability (Seliciclib + Linsitinib; first compound 8 µM),relative viability (Seliciclib + Foretinib; first compound 0.08 µM),relative viability (Seliciclib + Foretinib; first compound 0.253 µM),relative viability (Seliciclib + Foretinib; first compound 0.8 µM),relative viability (Seliciclib + Foretinib; first compound 2.53 µM),relative viability (Seliciclib + Foretinib; first compound 8 µM)
LU99A,0.9,0.671,0.69,0.759,0.711,0.267,0.196,0.209,0.191,0.268,0.565,0.466,0.474,0.497,0.494,0.83,0.532,0.825,0.717,0.517
LXF-289,0.937,1.03,0.795,0.934,0.914,0.603,0.778,0.545,0.642,0.56,0.945,1.03,0.908,0.947,0.914,0.95,1.16,0.973,0.943,0.86
NCI-H23,0.813,0.677,0.842,0.624,0.565,0.202,0.206,0.209,0.211,0.242,0.616,0.392,0.505,0.599,0.419,0.977,1.09,0.96,0.88,0.592
NCI-H322M,1.22,1.34,1.12,1.37,1.24,0.855,0.883,0.794,0.786,0.809,1.02,0.932,1.05,0.977,0.803,1,1.23,0.907,0.865,0.752
NCI-H441,0.603,0.365,0.526,0.566,0.59,0.319,0.296,0.341,0.299,0.299,0.699,0.545,0.45,0.572,0.442,0.791,0.86,0.969,0.93,0.623
NCI-H460,1.1,1.13,1.03,1.1,0.801,0.0402,0.0324,0.0419,0.0357,0.0269,0.797,0.795,0.75,1,0.637,0.993,1.05,1,1.06,0.882
NCI-H520,0.96,0.847,0.997,1.2,1.18,0.234,–,0.175,0.315,0.205,0.954,0.762,0.924,0.949,0.935,0.759,–,0.826,0.76,0.858
NCI-H596,1,0.567,0.891,1.16,0.826,0.802,–,1,0.84,0.745,1.09,0.636,0.996,1.12,1.1,0.849,–,0.843,0.68,0.65
NCI-H647,1.02,1,1.06,1.12,0.878,0.111,0.206,0.127,0.128,0.163,1.22,1.12,1.11,1.19,0.718,1.16,–,1.13,1.19,1.09
NCI-H727,0.509,0.494,0.407,0.43,0.309,0.338,0.447,0.372,0.321,0.271,0.306,0.245,0.222,0.226,0.251,0.905,0.917,0.716,0.661,0.896
NCI-H838,1.11,1.03,1.2,1.26,0.917,0.356,0.27,0.332,0.28,0.344,0.933,0.864,0.943,1.07,0.966,0.902,0.928,0.998,1.11,0.808
NCI-H1355,0.952,0.861,1.01,1.13,0.873,0.722,0.638,0.643,0.713,0.684,0.788,0.73,0.792,0.892,0.812,0.95,0.976,0.706,1.03,0.93
NCI-H1395,1.12,0.936,1.31,1.08,1.06,0.709,0.722,0.726,0.588,0.669,0.961,0.739,1,1.06,1.28,0.974,0.905,0.978,0.995,0.966
NCI-H1437,1.01,1.11,1.07,1.15,0.885,0.999,1.2,1.05,1.05,0.809,1.02,1.06,0.974,1.16,0.786,1.2,1.31,1.26,1.31,1.18
NCI-H1651,0.947,0.965,0.863,1.14,0.887,0.864,0.958,0.876,0.594,0.564,0.878,0.879,0.91,0.924,0.839,0.583,0.754,0.819,0.857,0.75
NCI-H1666,0.951,1.05,0.909,1.06,0.512,1.01,1.08,1.04,0.968,0.778,0.769,0.862,0.662,0.875,0.514,0.97,1.04,0.987,1,0.662
